Measured values from the NIST ThermoML archive (doi:10.1016/j.jct.2012.02.036).
Where “and” joins values, the source holds several entries; their conditions need not be identical. Equal values may be shown once. ± gives the expanded uncertainty stated by the source.

Assays:
[1] = xn = mol fraction of the nth substance listed; details: 101 kPa, Liquid, x2 = 0; for mass density: Vibrating tube method
[2] = Liquid; for mass density: Vibrating tube method
[3] = 293.15 K, 101.33 kPa, Capillary tube (Ostwald / Ubbelohde) method
[4] = 303.15 K, 101.33 kPa, Capillary tube (Ostwald / Ubbelohde) method
[5] = 313.15 K, 101.33 kPa, Capillary tube (Ostwald / Ubbelohde) method
[6] = 323.15 K, 101.33 kPa, Capillary tube (Ostwald / Ubbelohde) method
[7] = 333.15 K, 101.33 kPa, Capillary tube (Ostwald / Ubbelohde) method

## CC(C)O [propan-2-ol] + NCCCO
[1]; 293.15 K
  mass density: 785.36 ± 0.24 kg/m3
  viscosity: 2.318 ± 0.13 mPa·s
[1]; 303.15 K
  mass density: 776.87 ± 0.24 kg/m3
  viscosity: 1.596 ± 0.094 mPa·s
[1]; 313.15 K
  mass density: 768.07 ± 0.24 kg/m3
  viscosity: 0.996 ± 0.062 mPa·s
[1]; 323.15 K
  mass density: 758.89 ± 0.24 kg/m3
[1]; 333.15 K
  mass density: 749.25 ± 0.25 kg/m3

## CC(C)O [propan-2-ol]
[2]; 293.15 K, 101 kPa
  viscosity: 2.318 ± 0.13 mPa·s
  mass density: 785.36 ± 0.24 kg/m3
[2]; [3]
  viscosity: 2.362 ± 0.015 mPa·s
[2]; 293.15 K, 101.33 kPa
  mass density: 785.25 ± 0.24 kg/m3
[2]; 303.15 K, 101 kPa
  viscosity: 1.596 ± 0.094 mPa·s
  mass density: 776.87 ± 0.24 kg/m3
[2]; [4]
  viscosity: 1.769 ± 0.011 mPa·s
[2]; 303.15 K, 101.33 kPa
  mass density: 776.78 ± 0.24 kg/m3
[2]; 313.15 K, 101 kPa
  viscosity: 0.996 ± 0.062 mPa·s
  mass density: 768.07 ± 0.24 kg/m3
[2]; [5]
  viscosity: 1.33 ± 0.0086 mPa·s
[2]; 313.15 K, 101.33 kPa
  mass density: 767.98 ± 0.24 kg/m3
[2]; 323.15 K, 101 kPa
  mass density: 758.89 ± 0.24 kg/m3
[2]; [6]
  viscosity: 1.014 ± 0.0068 mPa·s
[2]; 323.15 K, 101.33 kPa
  mass density: 758.82 ± 0.25 kg/m3
[2]; 333.15 K, 101 kPa
  mass density: 749.25 ± 0.25 kg/m3
[2]; 333.15 K, 101.33 kPa
  mass density: 749.2 ± 0.25 kg/m3

## NCCCO [3-amino-1-propanol]
[2]; 293.15 K, 101 kPa
  viscosity: 40.45 ± 1.7 mPa·s and 40.46 ± 1.7 mPa·s
  mass density: 987.65 ± 0.29 kg/m3
[2]; [3]
  viscosity: 40.42 ± 0.2 mPa·s
[2]; 293.15 K, 101.33 kPa
  mass density: 987.55 ± 0.21 kg/m3
[2]; 303.15 K, 101 kPa
  viscosity: 23.98 ± 1 mPa·s
  mass density: 979.65 ± 0.29 kg/m3
[2]; [4]
  viscosity: 23.87 ± 0.12 mPa·s
[2]; 303.15 K, 101.33 kPa
  mass density: 979.53 ± 0.22 kg/m3
[2]; 313.15 K, 101 kPa
  viscosity: 15.31 ± 0.68 mPa·s
  mass density: 971.61 ± 0.29 kg/m3
[2]; [5]
  viscosity: 15.27 ± 0.078 mPa·s
[2]; 313.15 K, 101.33 kPa
  mass density: 971.47 ± 0.22 kg/m3
[2]; 323.15 K, 101 kPa
  viscosity: 10.22 ± 0.48 mPa·s
  mass density: 963.52 ± 0.29 kg/m3
[2]; [6]
  viscosity: 10.22 ± 0.054 mPa·s
[2]; 323.15 K, 101.33 kPa
  mass density: 963.37 ± 0.22 kg/m3
[2]; 333.15 K, 101 kPa
  viscosity: 6.961 ± 0.35 mPa·s and 6.962 ± 0.35 mPa·s
  mass density: 955.38 ± 0.29 kg/m3
[2]; [7]
  viscosity: 7.123 ± 0.04 mPa·s
[2]; 333.15 K, 101.33 kPa
  mass density: 955.22 ± 0.22 kg/m3

## CC(C)CO [2-methyl-1-propanol] + NCCCO
[1]; 293.15 K
  mass density: 801.8 ± 0.2 kg/m3
  viscosity: 4.197 ± 0.23 mPa·s
[1]; 303.15 K
  mass density: 793.99 ± 0.24 kg/m3
  viscosity: 2.873 ± 0.16 mPa·s
[1]; 313.15 K
  mass density: 786.04 ± 0.24 kg/m3
  viscosity: 1.926 ± 0.11 mPa·s
[1]; 323.15 K
  mass density: 777.85 ± 0.24 kg/m3
  viscosity: 1.232 ± 0.074 mPa·s
[1]; 333.15 K
  mass density: 769.36 ± 0.24 kg/m3

## CC(C)CO [2-methyl-1-propanol]
[2]; 293.15 K, 101 kPa
  viscosity: 4.197 ± 0.23 mPa·s
  mass density: 801.8 ± 0.2 kg/m3
[2]; [3]
  viscosity: 4.085 ± 0.025 mPa·s
[2]; 293.15 K, 101.33 kPa
  mass density: 801.75 ± 0.24 kg/m3
[2]; 303.15 K, 101 kPa
  viscosity: 2.873 ± 0.16 mPa·s
[2]; [4]
  viscosity: 2.877 ± 0.018 mPa·s
[2]; 303.15 K, 101.33 kPa
  mass density: 793.99 ± 0.24 kg/m3
[2]; 313.15 K, 101 kPa
  viscosity: 1.926 ± 0.11 mPa·s
[2]; [5]
  viscosity: 2.091 ± 0.013 mPa·s
[2]; 313.15 K, 101.33 kPa
  mass density: 786.04 ± 0.24 kg/m3
[2]; 323.15 K, 101 kPa
  viscosity: 1.232 ± 0.074 mPa·s
[2]; [6]
  viscosity: 1.576 ± 0.01 mPa·s
[2]; 323.15 K, 101.33 kPa
  mass density: 777.85 ± 0.24 kg/m3
[2]; 333.15 K, 101 kPa
  viscosity: 0.665 ± 0.044 mPa·s
[2]; [7]
  viscosity: 1.124 ± 0.007 mPa·s
[2]; 333.15 K, 101.33 kPa
  mass density: 769.36 ± 0.24 kg/m3
